# Test results: paper PMC6318807 (ACS chemical neuroscience, 2018)
# Biological target: EP2 receptor (Homo sapiens, UniProt P43116)
# Assay: TR-FRET cAMP
# Format: cell-based
# Chain of EP2 receptor (P43116 whole entry): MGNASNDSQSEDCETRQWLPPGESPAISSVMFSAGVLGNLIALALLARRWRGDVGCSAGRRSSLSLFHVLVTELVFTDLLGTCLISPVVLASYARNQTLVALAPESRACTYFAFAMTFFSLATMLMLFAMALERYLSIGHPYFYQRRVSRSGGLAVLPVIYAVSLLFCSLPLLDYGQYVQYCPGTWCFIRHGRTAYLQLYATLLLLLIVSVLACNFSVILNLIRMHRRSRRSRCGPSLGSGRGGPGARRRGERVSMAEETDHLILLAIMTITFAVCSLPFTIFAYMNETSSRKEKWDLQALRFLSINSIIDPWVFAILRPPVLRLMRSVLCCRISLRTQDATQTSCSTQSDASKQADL
row,Compound,TR-FRET cAMP; fold leftward shift of PGE2 EC50 at 20 μM compound
1,"Cc1ccccc1C(=O)Nc1ccccc1N1CCCCC1 [CID2340325, 2-methyl-N-(2-piperidin-1-ylphenyl)benzamide]",3.3 fold shift of PGE2 EC50 at 20 μM
2,CC(C)Sc1cc(N2CCOCC2)nc(-c2ccccc2)n1 [CID852313],2.4 fold shift of PGE2 EC50 at 20 μM
3,CC(C)Sc1cc(N2CCOCC2)nc(-c2ccc(Cl)cc2)n1 [CID852308],2.4 fold shift of PGE2 EC50 at 20 μM
4,"COc1ccc(-c2cc(C(F)(F)F)nc(N3CCOCC3)n2)cc1OC [CID2992168, 4-[4-(3,4-dimethoxyphenyl)-6 (trifluoromethyl)pyrimidin-2-yl]morpholine]",2.7 fold shift of PGE2 EC50 at 20 μM
5,O=C(Nc1cccc(Cl)c1N1CCCCC1)c1ccc2c(c1)OCCO2 [CID1254488],2.5 fold shift of PGE2 EC50 at 20 μM
6,"O=C(Nc1ccccc1N1CCCCC1)c1ccc(F)cc1 [CID890517, 4-fluoro-N-(2-piperidin-1-ylphenyl)benzamide]",4.3 fold shift of PGE2 EC50 at 20 μM
7,"CC1CCN(c2ccccc2NC(=O)c2ccc(F)cc2)CC1 [CID953673, 4-fluoro-N-(2-(4-methylpiperidin-1-yl)phenyl)benzamide]",2.5 fold shift of PGE2 EC50 at 20 μM
8,"FC(F)(F)c1cc(-c2ccccc2)nc(N2CCOCC2)n1 [CID891729, 4-[4-phenyl-6-(trifluoromethyl)pyrimidin-2-yl]morpholine]",2.4 fold shift of PGE2 EC50 at 20 μM
